Measurements as given in US11155539B2, “4-pyridinylmethyl-morpholine derivatives and the use thereof as medicament” (Boehringer Ingelheim International GmbH, priority 2018, dated 2021).
pIC50: −log10 of the molar value. Values belong to the compound of their own block, whether it stands above or below them.

Experiments:
[1] = molecular target: T1, NMDA NR1/NR2B receptor (Homo sapiens, UniProt Q05586+Q13224); experiment: In vitro NMDA NR1/NR2B cell assay (FLIPR, intracellular calcium induced by glycine/glutamate); assay type: cell-based; settings: HEK293 cells expressing NMDA NR1/NR2B; 20 μM glycine, 1 μM glutamate; read-out: IC50 (in vitro NR2B affinity, FLIPR assay)
T1 construct: host or cells: HEK293, tetracycline-inducible expression
T1 sequence (Q13224 27-1484, other chains not shown): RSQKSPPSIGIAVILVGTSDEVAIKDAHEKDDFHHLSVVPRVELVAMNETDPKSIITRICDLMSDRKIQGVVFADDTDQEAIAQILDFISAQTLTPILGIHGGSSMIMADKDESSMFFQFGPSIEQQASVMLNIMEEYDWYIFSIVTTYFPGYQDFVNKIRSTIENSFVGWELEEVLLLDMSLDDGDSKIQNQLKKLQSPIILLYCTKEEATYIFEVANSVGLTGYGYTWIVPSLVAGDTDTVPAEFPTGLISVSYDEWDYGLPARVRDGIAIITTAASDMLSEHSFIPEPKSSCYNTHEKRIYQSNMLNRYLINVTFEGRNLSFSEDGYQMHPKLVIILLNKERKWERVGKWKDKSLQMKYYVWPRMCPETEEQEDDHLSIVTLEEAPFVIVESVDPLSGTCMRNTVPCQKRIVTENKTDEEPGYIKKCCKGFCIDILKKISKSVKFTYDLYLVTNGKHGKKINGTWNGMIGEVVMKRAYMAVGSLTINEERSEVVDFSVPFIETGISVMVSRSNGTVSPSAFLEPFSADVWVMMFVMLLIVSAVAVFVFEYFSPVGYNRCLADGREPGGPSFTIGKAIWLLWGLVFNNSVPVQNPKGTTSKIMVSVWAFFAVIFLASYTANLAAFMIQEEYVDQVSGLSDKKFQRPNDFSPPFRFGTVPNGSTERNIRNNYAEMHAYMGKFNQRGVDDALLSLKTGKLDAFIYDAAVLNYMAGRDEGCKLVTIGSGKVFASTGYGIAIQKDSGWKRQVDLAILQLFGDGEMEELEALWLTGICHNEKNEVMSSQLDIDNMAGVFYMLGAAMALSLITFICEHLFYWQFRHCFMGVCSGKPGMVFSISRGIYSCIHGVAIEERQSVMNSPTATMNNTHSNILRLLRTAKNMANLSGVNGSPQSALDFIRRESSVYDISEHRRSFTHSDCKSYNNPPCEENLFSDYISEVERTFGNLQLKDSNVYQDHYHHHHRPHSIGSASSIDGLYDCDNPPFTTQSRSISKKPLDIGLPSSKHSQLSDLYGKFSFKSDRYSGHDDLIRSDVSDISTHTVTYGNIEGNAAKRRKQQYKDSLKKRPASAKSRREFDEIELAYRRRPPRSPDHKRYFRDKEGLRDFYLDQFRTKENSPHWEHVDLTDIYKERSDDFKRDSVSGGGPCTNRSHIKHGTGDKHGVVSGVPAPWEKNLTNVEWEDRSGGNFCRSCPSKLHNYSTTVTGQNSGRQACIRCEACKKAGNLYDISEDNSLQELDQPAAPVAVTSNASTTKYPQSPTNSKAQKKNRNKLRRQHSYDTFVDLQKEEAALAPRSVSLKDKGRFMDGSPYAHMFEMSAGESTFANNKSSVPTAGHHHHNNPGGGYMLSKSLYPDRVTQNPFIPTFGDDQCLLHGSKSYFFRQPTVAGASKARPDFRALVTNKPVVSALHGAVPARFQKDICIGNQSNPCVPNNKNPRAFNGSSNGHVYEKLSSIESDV
Description: A human HEK293 cell line with tetracyclin-inducible expression of NMDA NR1/NR2B receptor was used as a test system for compound efficacy and potency. The cell line was purchased from ChanTest, Catalog #CT6121. Compound activity was determined by measuring the effect of compounds on intracellular calcium concentration induced by glycine/glutamate agonism in a FLIPRtetra system (Molecular Devices).
The cells were obtained as frozen cells in cryo-vials and stored until use at −150° C. Cells were grown in culture medium (DMEM/F12, 10% FBS, 5 μg/mL Blasticidin, 150 μg/mL Zeozin, 500 μg/mL Geneticin). […] For sub-culturing the cells were detached from flasks by Versene. For the assay, cells were detached, washed twice with induction medium (DMEM/F12 without glutamine, 10% FBS, 2 μg/mL Tetracycline, 2 mM Ketamine) and seeded to 384 well pure coat amine plates (Becton Dickinson, 50000 cells per well in 50 μl) 48 h prior to assay in induction medium.
The test compounds were dissolved in 100% DMSO at a concentration of 10 mM and in a first step diluted in DMSO to a concentration of 5 mM, followed by serial dilution steps in 100% DMSO. Dilution factor and number of dilution steps may vary according to needs. Typically 8 different concentrations by 1:5 dilutions were prepared in duplicate, further intermediate dilutions (1:37.5) of the substances were carried out with aqueous assay buffer (137 mM NaCl, 4 mM KCl, 1.8 mM CaCl2, 10 mM HEPES, 10 mM Glucose, pH 7.4) resulting in a compound concentration 3 times above the final test concentration and DMSO at 2.7% resulting in 0.9% final DMSO concentration in the assay.
At the assay day cells were washed 3× with assay buffer (as described above), 10 μL buffer remained in the wells after washing. 10 μL Ca kit loading buffer (AAT Bioquest; prepared from the kit containing the following components: Component A: Fluo-8 NW dissolved in 200 μL DMSO and 20 μl of this solution are mixed with 10 ml buffer prepared out of component B and C, Component B: 10× Pluronic® F127 Plus diluted 1:10 in component C, Component C: HHBS (Hanks with 20 mM Hepes) was added to the cells and the plates were incubated with lid for 60 minutes at room temperature. 20 μl assay buffer containing 60 μM glycine (20 μM final) and 3 μM glutamate (1 μM final) was added to column 1-23, column 24 got assay buffer without glycine/glutamate to serve as negative unstimulated control. Fluorescence (indicating the calcium influx as a result of the NR1/NR2B ion channel activation) was read on the FLIPRtetra device for 60 seconds to monitor the glutamate induced effects. After 2 minutes 20 μL of compound dilution prepared as described above or controls (row 1-22) in assay buffer were carefully added to the wells. […] The average of 2 measurements at 5 minutes and […] 10 seconds after compound addition is calculated and further used for IC50 calculations. Each assay microtiter compound dilution plate contained wells (in column 23 or 24) with DMSO controls instead of compound as controls for glycine/glutamate induced fluorescence (high controls) and wells with 1 μM of a reference NR2B NAM as low controls (Compound 22; reference: Layton, Mark E et al, ACS Chemical Neuroscience 2011, 2(7), 352-362).
The output file of the reader contains the well number and measured average fluorescence units. For data evaluation and calculation, the measurement of the low control was set as 0% control and the measurement of the high control was set as 100% control. The IC50 values were calculated using the standard 4 parameter logistic regression formula. Calculation: [y=(a−d)/(1+(x/c)^b)+d], a=low value, d=high value; x=conc M; c=IC50 M; b=slope.

[2] = molecular target: Nav1.6 (Homo sapiens, UniProt Q9UQD0); experiment: Nav 1.6 inhibition, IonWorks Quattro electrophysiology; assay type: cell-based; settings: for inhibition at 1 µM / inhibition at 5 µM: normalized to vehicle control (0%) and maximal inhibition control (100%)
Sequence of Nav1.6 (Q9UQD0 whole entry): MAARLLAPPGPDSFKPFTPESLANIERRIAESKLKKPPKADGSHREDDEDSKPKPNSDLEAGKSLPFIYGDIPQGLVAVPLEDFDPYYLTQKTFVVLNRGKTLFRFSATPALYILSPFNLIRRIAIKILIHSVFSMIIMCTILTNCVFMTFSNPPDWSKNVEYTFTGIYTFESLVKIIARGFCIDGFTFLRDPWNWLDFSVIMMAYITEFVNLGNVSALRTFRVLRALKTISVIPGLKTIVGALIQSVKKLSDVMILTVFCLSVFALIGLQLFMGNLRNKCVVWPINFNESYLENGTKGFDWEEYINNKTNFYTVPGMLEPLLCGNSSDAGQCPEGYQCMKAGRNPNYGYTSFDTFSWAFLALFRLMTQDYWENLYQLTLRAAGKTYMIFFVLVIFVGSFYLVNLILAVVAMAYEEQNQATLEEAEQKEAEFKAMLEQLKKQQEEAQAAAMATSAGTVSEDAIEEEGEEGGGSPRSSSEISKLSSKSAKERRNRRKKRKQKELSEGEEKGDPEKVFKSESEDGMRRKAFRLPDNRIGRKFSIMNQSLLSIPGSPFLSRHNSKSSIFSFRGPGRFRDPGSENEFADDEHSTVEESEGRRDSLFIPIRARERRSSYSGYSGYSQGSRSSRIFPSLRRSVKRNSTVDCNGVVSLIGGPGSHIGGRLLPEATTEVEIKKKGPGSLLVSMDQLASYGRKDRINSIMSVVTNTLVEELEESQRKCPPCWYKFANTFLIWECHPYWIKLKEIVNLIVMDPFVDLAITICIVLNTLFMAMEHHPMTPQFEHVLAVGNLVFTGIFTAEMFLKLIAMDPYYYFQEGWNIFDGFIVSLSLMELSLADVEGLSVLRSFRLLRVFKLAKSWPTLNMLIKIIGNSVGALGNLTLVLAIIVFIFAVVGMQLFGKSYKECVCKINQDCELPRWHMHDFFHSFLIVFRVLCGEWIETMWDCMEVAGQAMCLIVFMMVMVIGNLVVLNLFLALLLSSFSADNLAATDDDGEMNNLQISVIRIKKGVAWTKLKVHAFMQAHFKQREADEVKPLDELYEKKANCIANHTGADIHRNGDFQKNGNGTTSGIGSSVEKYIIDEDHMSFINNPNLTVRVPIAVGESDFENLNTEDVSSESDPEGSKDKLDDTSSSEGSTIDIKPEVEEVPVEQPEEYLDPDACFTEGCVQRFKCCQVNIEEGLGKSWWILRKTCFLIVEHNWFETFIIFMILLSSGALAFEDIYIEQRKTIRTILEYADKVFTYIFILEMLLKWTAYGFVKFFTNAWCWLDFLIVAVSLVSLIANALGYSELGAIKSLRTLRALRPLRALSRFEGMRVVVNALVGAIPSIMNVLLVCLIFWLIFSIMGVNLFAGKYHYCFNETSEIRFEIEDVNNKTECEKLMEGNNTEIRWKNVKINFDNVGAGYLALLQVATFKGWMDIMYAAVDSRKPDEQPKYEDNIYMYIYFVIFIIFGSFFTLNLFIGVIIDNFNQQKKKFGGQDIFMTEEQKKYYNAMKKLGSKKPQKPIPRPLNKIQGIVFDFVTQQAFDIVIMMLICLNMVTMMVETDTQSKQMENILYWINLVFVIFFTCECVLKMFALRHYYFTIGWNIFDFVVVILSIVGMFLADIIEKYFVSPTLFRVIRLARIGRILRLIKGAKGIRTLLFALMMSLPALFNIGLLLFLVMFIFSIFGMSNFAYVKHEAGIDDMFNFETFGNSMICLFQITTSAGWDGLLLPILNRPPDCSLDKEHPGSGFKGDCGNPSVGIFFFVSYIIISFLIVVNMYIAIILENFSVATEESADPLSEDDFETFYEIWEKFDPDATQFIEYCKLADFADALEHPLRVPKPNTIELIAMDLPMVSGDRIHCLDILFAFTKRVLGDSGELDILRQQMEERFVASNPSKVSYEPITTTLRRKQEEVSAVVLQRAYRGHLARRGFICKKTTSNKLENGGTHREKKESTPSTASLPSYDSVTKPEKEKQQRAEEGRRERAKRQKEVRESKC
Description: Determination of Nav 1.6.Inhibition
IonWorks Quattro electrophysiological platform
The compounds were prepared in DMSO at 300× the final assay concentrations of 1 and 5 μM.
The 300×DMSO stock solutions were transferred into assay plates where 2 μl per well of each 300× stock solution were placed. All assay plates were stored at −80° C. until the day of assay.
On the day of the assay, the appropriate assay plate was thawed at room temperature, centrifuged, and 198 μl of external recording solution was added and mixed thoroughly. This provided a 1:100 dilution. A further 1:3 dilution occurred upon addition to the cells in the IonWorks Quattro electrophysiological platform, giving a 1:300 dilution in total. On each assay plate, at least 8 wells were reserved for vehicle control (0.3% DMSO) and at least 8 wells for each positive control specific to the cell line tested. The positive controls were tested at a maximal blocking and an approximate IC50 concentration. As positive control Lidocaine at concentrations of 30 and 1000 μM was used.
The solutions for recording Nav1.6 currents were as follows:
Amphotericin B was used to obtain electrical access to the cell interior at a final concentration of 200 μg/ml in internal recording solution.
State-dependent inhibition: Sodium channels when held at depolarized potential or long test pulse, the channels open and inactivate and then stay inactivated until the membrane potential is stepped back to hyperpolarized potentials, when the inactivated channels recover from inactivation into closed state.
Cells were held at −120 mV. In order to completely inactivate the sodium channels (pulse 1), the cells were pulsed to +0 mV for 2500 ms and stepped back to −120 mV for 10 ms (to completely recover from inactivation, however channels that had drugs bound to them will not recover from inactivation) before stepping to +0 mV for 20 ms (pulse 2).
Both the positive and vehicle control data associated with each cell line assayed are shown below as an example. The mean is shown for each positive and negative control as solid symbol with the total number of individual well replicates given next to the solid symbol. In addition, the individual data of each well are shown on the graph as open symbols so that the variation about the mean value can be readily assessed.
Shown below are the assay controls for the Nav1.6 IonWorks Quattro assay.
Tables 3 and 4 show the normalized percentage inhibition of Nav1.6 channel. […] (see also the figure Assay Control Results above).

[3] = molecular target: T2, MDR1 (P-gp) (Homo sapiens, UniProt P08183); experiment: MDCK assay P-gp (permeability across MDCK-MDR1 monolayers); assay type: in vitro ADME; settings: for Papp A→B at 2 h: apical-to-basal, MDCK-MDR1 monolayers, pH 7.4; for efflux ratio at 2 h: pH 7.4, Papp (b-a) divided by Papp (a-b), MDCK-MDR1, read-out: efflux ratio PEBA/PEAB
T2 construct: expressed in transfected cells; host or cells: MDCKII (Madin-Darby canine kidney)
T2 sequence (P08183 whole entry): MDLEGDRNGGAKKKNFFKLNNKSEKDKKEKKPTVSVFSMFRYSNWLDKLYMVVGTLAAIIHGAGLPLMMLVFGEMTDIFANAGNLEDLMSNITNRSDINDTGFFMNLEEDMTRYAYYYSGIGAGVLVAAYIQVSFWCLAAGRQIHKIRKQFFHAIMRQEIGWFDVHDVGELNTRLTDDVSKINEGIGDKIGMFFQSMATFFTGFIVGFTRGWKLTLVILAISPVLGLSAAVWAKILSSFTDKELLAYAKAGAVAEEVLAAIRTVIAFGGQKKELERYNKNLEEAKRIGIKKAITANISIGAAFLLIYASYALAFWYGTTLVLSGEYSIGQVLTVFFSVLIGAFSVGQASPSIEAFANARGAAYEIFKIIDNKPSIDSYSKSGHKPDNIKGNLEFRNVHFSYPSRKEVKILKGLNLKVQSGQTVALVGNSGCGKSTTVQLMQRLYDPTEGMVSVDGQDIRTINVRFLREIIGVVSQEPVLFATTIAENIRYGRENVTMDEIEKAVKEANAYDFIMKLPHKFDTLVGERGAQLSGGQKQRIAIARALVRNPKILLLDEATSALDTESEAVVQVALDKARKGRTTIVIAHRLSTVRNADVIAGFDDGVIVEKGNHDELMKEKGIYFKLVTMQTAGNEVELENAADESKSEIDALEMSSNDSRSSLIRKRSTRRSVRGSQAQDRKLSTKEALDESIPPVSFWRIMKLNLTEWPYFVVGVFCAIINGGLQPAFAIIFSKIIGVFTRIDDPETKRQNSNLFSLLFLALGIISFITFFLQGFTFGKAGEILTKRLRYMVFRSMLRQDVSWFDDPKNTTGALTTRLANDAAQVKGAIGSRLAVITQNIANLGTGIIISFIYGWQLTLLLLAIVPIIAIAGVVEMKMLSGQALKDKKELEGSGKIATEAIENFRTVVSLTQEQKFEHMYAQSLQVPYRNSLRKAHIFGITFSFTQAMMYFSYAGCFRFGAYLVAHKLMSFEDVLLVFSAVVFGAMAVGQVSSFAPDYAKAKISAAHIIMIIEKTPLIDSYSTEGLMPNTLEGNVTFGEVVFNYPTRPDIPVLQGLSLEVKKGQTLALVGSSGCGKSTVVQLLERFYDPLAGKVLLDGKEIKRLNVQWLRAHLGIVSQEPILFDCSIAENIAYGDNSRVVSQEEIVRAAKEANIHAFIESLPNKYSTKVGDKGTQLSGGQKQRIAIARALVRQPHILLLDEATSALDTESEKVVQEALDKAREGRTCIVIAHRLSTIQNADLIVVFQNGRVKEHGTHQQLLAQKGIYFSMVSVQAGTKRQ
Description: The MDCK assays provide information on the potential of a compound to pass the blood brain barrier. Permeability measurements across polarized, confluent MDCK-MDR1 cell monolayers grown on permeable filter supports are used as an in vitro absorption model: apparent permeability coefficients (PE) of the compounds across the MDCK-MDR1 cell monolayers are measured (pH 7.4, 37° C.) in apical-to-basal (AB) and basal-to-apical (BA) transport direction. The AB permeability (PEAB) represents drug absorption from the blood into the brain and the BA permeability (PEBA) drug efflux from the brain back into the blood via both, passive permeability as well as active transport mechanisms mediated by efflux and uptake transporters that are expressed on the MDCK-MDR1 cells, predominantly by the overexpressed human MDR1. Identical or similar permeabilities in both transport directions indicate passive permeation (PEBA/PEAB≤1), vectorial permeability points to additional active transport mechanisms. Higher PEBA than PEAB (PEBA/PEAB>5) indicates the involvement of active efflux mediated by MDR1, which might compromise the goal to achieve sufficient brain exposure. Therefore, this assay provides valuable support for selection of compounds applicable for further in vivo testing. High permeability not limited by efflux at the blood brain barrier is a favorable characteristic for compounds that are to be used for drugs acting primarily in the CNS.
Apparent permeability coefficients (Papp) of the compounds across the MDCK-MDR1 monolayers (MDCKII cells transfected with human MDR1 cDNA expression plasmid) are measured in apical-to-basal (AB) and basal-to-apical (BA) direction. MDCK-MDR1 cells (6×10^5 cells/cm^2) are seeded on filter inserts (Corning, Transwell, polycarbonate, 0.4 μm pore size) and cultured for 9 to 10 days. Compounds dissolved in DMSO stock solution (1-20 mM) are diluted with HTP-4 aqueous buffer (128.13 mM NaCl, 5.36 mM KCl, 1 mM MgSO4, 1.8 mM CaCl2, 4.17 mM NaHCO3, 1.19 mM Na2HPO4, 0.41 mM NaH2PO4, 15 mM HEPES, 20 mM glucose, pH 7.4) supplemented with 0.25% BSA to prepare the transport solutions (final concentration: 1 or 10 μM, final DMSO<=0.5%). The transport solution is applied to the apical or basolateral donor side for measuring A-B or B-A permeability, respectively. The receiver side contains HTP-4 buffer supplemented with 0.25% BSA. Samples are collected at the start and end of experiment from the donor and at various time intervals for up to 2 hours also from the receiver side for concentration measurement by HPLC-MS/MS (RapidFire High-throughput MS System (Agilent) coupled to QTrap 6500 (AB Sciex) or TSQ Vantage (Thermo Scientific)). Sampled receiver volumes are replaced with fresh receiver solution. Efflux ratio is calculated dividing the Papp (b-a) values by the Papp (a-b) values.

[4] = Metabolic stability in pooled human liver microsomes; assay type: in vitro ADME; settings: pH 7.6, 1 μM compound, 37° C., NADPH, read-out: Half-life - t½ human liver microsomes
Description: Stability in human liver microsomes refers to the susceptibility of compounds to biotransformation in the context of selecting and/or designing drugs with favorable pharmacokinetic properties. The primary site of metabolism for many drugs is the liver. Human liver microsomes contain the cytochrome P450s (CYPs), and thus represent a model system for studying drug metabolism in vitro Enhanced stability in human liver microsomes is associated with several advantages, including increased bioavailability and adequate half-life, which can enable lower and less frequent dosing of patients. Thus, enhanced stability in human liver microsomes is a favorable characteristic for compounds that are to be used for drugs.
The metabolic degradation of the test compound was assayed at 37° C. with pooled human liver microsomes. The final incubation volume of 60 μl per time point contains TRIS buffer pH 7.6 at room temperature (0.1 M), magnesium chloride (5 mM aqueous solution), microsomal protein (1 mg/mL for human) and the test compound at a final concentration of 1 μM. Following a short preincubation period at 37° C., the reactions were initiated by addition of betanicotinamide adenine dinucleotide phosphate, reduced form (NADPH, 1 mM), and terminated by transferring an aliquot into acetonitril after different time points. After centrifugation (10000 g, 5 min), an aliquot of the supernatant was assayed by HPLC-MS/MS as described above for the MDCK assay P-gp for the amount of parent compound. The half-life was determined by the slope of the semi-logarithmic plot of the concentration-time profile.

Structure (SMILES): CNC(=O)[C@@H]1CN(Cc2ccc(Oc3ccc(C)cc3C)nc2)CCO1 [Example 13]
pIC50 [1]: 6.35

Structure (SMILES): CCCCNc1ccc(C(=O)OCCN(C)C)cc1 [Tetracaine, reference compound]
inhibition of Nav1.6 currents (in words) ([2]; reference compounds, FIG. 1 and FIG. 2): much stronger at depolarized potentials than at hyperpolarized potential

Structure (SMILES): CNC(=O)[C@@H]1CN(Cc2ccc(Oc3ccc(F)cc3F)nc2)CCO1 [Example 11]
pIC50 [1]: 6.99

Structure (SMILES): CNC(=O)[C@@H]1CN(Cc2ccc(Oc3c(F)cccc3F)cn2)CCO1 [Example 39]
pIC50 [1]: 6.55

The remaining lines, values ahead:

pIC50 [1]: 6.70
Structure (SMILES): CNC(=O)[C@@H]1CN(Cc2ccc(Oc3ccc(F)cc3)nc2)CCO1 [Example 14]

pIC50 [1]: 6.34
Structure (SMILES): CNC(=O)[C@@H]1CN(Cc2ccc(Oc3ccccc3)cn2)CCO1 [Example 35]

pIC50 [1]: 6.69
Structure (SMILES): CNC(=O)[C@@H]1CN(Cc2ccc(Oc3ccc(Cl)cc3)nc2)CCO1 [Example 16]

inhibition at 1 µM [2]: -3.1%
inhibition at 5 µM [2]: -1.8%
Papp A→B at 2 h [3]: 45 ×10⁻⁶ cm/s
efflux ratio at 2 h [3]: 1
half-life at 1 μM [4]: > 2.17 h
Structure (SMILES): CNC(=O)C1CN(Cc2ccc(Oc3ccc(C)cc3C)nc2)CCO1 (centres unmarked) [Example 13]

inhibition at 1 µM [2]: 5.1%
inhibition at 5 µM [2]: 10.2%
Papp A→B at 2 h [3]: 80 ×10⁻⁶ cm/s
efflux ratio at 2 h [3]: 0.7
half-life at 1 μM [4]: > 2.17 h
Structure (SMILES): CNC(=O)C1CN(Cc2ccc(Oc3ccc(C)cc3F)nc2)CCO1 (centres unmarked) [Example 12]
